{
  "source": "patent US8791155B2",
  "about": "“Chroman derivatives” (Edison Pharmaceuticals, Inc., priority 2003, dated 2014)",
  "data": [
    {"test_system": "dopaminergic neuronal cell line", "experiment": "High glutamate-induced oxidative stress assay (HGOS)", "assay_type": "cell-based", "details": "Mus musculus; 30 mM glutamate, 16 hrs; read-out: EC50, protection against HGOS cell injury and cell death", "text": "Protection against redox stress can be evaluated in cell culture using high glutamate induced oxidative stress (HGOS) in mouse dopaminergic cell lines. The cytotoxic effect of glutamate is not due to excitotoxicity, as this cell line is devoid of inotropic glutamate receptors. Rather, the glutamate-induced toxicity of dopaminergic cells is associated with an inhibition of cystine transport which subsequently leads to depletion of intracellular glutathione (GSH) levels (Murphy T. H., et al. Neuron 2, 1547-1558, 1989), activation of neuronal 12-lipoxygenase (Li, Y. et al., Neuron 19, 453-463, 1997), increased ROS production (Tan S. et al., J. Cell Biol. 141, 1423-1432, 1998) and elevated intracellular Cat^2+ (Li, Y. et al., see supra). Some molecules were measured for their ability to protect cells against glutamate-induced stress and the assay is detailed in Examples.\nThis procedure was used to induce high glutamate-induced oxidative stress (HGOS) in a dopaminergic neuronal cell line. Using this assay the potency and efficacy of test articles against HGOS neuronal cell injury and cell death was established in a high throughput manner.\n• Dopaminergic neuronal cell lines • DMEM-No Glucose (Life Technologies Cat #11966-025) • L-glutamine (Life Technologies Cat #25030-081) • L-glutamic acid, monosodium salt (Sigma Cat #G5889) • D-glucose (Sigma Cat #G-6151) • 10×HBSS buffer (pH 7.4) (950 ml Pyrogen-free water, 2.44 g/L MgCl2.6H20, 3.73 g/L KCl, 59.58 g/L Hepes, 58.44 g/L NaCl, 1.36 g/L KH2PO4, 1.91 g/L CaCl2.2H2O and pH to […] with HCl) • Cell Tracker Green fluorescent dye (Molecular Probes, Cat #2925). Prepare a 5NM solution in pre-warmed HBSS just prior to use. • Sterile 96-well plates precoated with poly-D-lysine (Corning Catalog #3665) • 96-well deep well mother plate, DyNA Block 1000 (VWR Catalog #40002-008) Neuronal Cells\nThe cells were seeded into 96-well plates at a density of 2000 per well and left to grow for 72 hours in a 33° C. incubator with 5% CO2 in air atmosphere. The passage number of the cells for each assay experiment were no later than p11 in order to minimize experimental variation.\nAll compounds were dissolved in DMEM-No Glu containing 1 mM glucose, 30 mM glutamate and 1× Pen/Strep. DMEM-No Glu with 1 mM glucose and 1× P/S was used as the negative control, DMEM-No Glucose with 1 mM glucose, […] glutamate was used as a positive control and 100 NM Glutathione was added to the positive control as a standard. All of the procedures for this involving the making and dilution of compounds were performed using aseptic conditions and with minimal light.\nThe plates were removed from the incubator and examined under the microscope for morphological appearance and density. Using an aseptic technique and an 8-channel aspirator the media was carefully removed from the cells and replaced with 200 μI of 1×HBSS. This was done as quickly as possible to prevent the cells drying out. The plates were then placed in the humidified 37° C. incubators of the Biomek 2000 Side Loader. Four plates were washed at a time so as to minimize the time that the cells were sitting in 1×HBSS prior to addition of the compound test solution. Experimental Setup\nThe Beckman Biomek workstations were used to load the compounds and controls from the mother plates onto the cell plates that were prewashed with HBSS under sterile conditions. The plates were incubated in the upper HTS incubator at 37° C. in 5% CO2 for exactly 16 hrs. The following day, using the Beckman Biomek workstations, the plates were removed from the incubator. Using Cell Tracker Addition, the compounds were removed from the plates, washed once with […] of pre-warmed 1×HBSS and then 100 μL of 5 μM Cell Tracker Green was added to each well. The plates were incubated at 37° C. for 30 min to allow the dye to enter the cell and be cleaved by the esterases. […]", "units": {"EC50": "µM"}, "values": [
      {"smiles": "CCCC1=NN(C)C(=O)C1=Cc1c(O)c(C)c(C)c2c1CCC(C)(C)O2", "note": "[4-(6-Hydroxy-2,2,7,8-tetramethyl-chroman-5-ylmethylene)-2-methyl-5-propyl-2,4-dihydro-pyrazol-3-one]", "EC50": "< 5"},
      {"smiles": "COCOc1cc2c(c(C)c1C)OC(C)(CCC=C1SC(=O)NC1=O)CC2", "note": "(stereo not shown) [5-[3-(6-Methoxymethoxy-2,7,8-trimethyl-chroman-2-yl)-propylidene]-thiazolidine-2,4-dione]", "EC50": "< 5"},
      {"smiles": "Cc1c(C)c2c(c(-c3ccc(S(C)(=O)=O)cc3)c1O)CCC(C)(C)O2", "note": "[5-(4-Methanesulfonyl-phenyl)-2,2,7,8-tetramethyl-chroman-6-ol]", "EC50": "< 5"},
      {"smiles": "Cc1c(C)c2c(c(-c3ccccc3)c1O)CCC(C)(C)O2", "note": "[2,2,7,8-Tetramethyl-5-phenyl-chroman-6-ol]", "EC50": "< 5"},
      {"smiles": "Cc1c(C)c2c(c(-c3ccncc3)c1O)CCC(C)(C)O2", "note": "[2,2,7,8-Tetramethyl-5-pyridin-4-yl-chroman-6-ol]", "EC50": "< 5"},
      {"smiles": "Cc1c(C)c2c(c(-c3ccc(N(C)C)cc3)c1O)CCC(C)(C)O2", "note": "[5-(4-Dimethylamino-phenyl)-2,2,7,8-tetramethyl-chroman-6-ol]", "EC50": "< 5"}
    ]},
    {"biological_target": "T1, porcine leukocyte 12/15-lipoxygenase (Sus scrofa, UniProt P16469)", "T1 construct": "purchased Cayman 60300", "T1 sequence (P16469 1-663)": "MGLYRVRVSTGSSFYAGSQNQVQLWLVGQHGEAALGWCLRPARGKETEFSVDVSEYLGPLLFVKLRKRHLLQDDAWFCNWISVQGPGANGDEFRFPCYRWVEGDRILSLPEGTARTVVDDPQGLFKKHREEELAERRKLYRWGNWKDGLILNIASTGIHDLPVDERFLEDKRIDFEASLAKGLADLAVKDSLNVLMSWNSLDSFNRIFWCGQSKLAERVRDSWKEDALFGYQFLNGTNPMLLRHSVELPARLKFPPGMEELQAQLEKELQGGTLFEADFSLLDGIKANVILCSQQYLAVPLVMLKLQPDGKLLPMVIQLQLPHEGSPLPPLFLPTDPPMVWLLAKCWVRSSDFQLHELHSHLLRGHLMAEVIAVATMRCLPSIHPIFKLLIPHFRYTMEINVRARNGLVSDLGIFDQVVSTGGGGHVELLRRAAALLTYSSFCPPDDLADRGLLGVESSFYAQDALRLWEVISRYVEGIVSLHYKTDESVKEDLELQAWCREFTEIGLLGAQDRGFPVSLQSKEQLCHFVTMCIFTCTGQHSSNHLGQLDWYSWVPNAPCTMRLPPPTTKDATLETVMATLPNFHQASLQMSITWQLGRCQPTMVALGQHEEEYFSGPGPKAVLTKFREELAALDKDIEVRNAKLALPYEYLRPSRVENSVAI", "experiment": "12/15-Lipoxygenase enzyme assay", "assay_type": "biochemical", "details": "70 μM arachidonic acid, pH 7.4, 10 minute incubation; read-out: IC50, inhibition of 12/15-Lipoxygenase", "text": "(§1) In vitro evaluation of the ability of a composition to inhibit the enzymes 5-lipoxygenase, 15-lipoxygenase, or 12/15 lipoxygenase as described in Walidge, N. B. et al Anal. Biochem., 231: 354-358 (1995) using a high throughput colorimetric method; as well as in vitro evaluation of inhibiting LTB4 is described in Examples.\nThis procedure was used for measuring the enzymatic activity of porcine leukocyte 12/15-lipoxygenase using a colorimetric method based on the ferric oxidation of xylenol orange.\n(§2) • 96 well flat bottom microfilter plates (VWR, Catalog #62402-933 9295) • Lipoxygenase screening assay buffer (Cayman, Catalog #760710) • Porcine leukocyte 12/15-lipoxygenase (Cayman, Catalog #60300) • Arachidonic Acid (Sigma, Catalog #A3555) • Xylenol orange tetrasodium salt (Aldrich, Catalog #227854) • Iron (II) sulfate heptahydrate (Sigma, Catalog #F7002) • Sulfuric acid (95-98%) [18M] • Methanol Procedure\n(§3) Porcine Leukocyte 12/15-lipoxygenase (Cayman Cat #60300) was used in this assay. Test compound and/or vehicle was added to 1.3 U 12/15-lipoxygenase in 50 mM Tris-HCl buffer, pH 7.4. The reaction was initiated by addition of 70 μM arachidonic acid in Tris-HCl buffer, pH 7.4, and terminated after a 10 minute incubation at room temperature by addition of FOX reagent (25 mM sulphuric acid, 100 μM xylenol orange, 100 μM iron (II) sulphate, methanol:water 9:1). The yellow color of acidified xylenol orange was converted to a blue color by the lipid hydroperoxide-mediated oxidation of Fe 2+ ions and the interaction of the resulting Fe 3+ ions with the dye. The complex was allowed to form during a 1 hour incubation at room temperature with shaking. Absorbance of the Fe 3+ complex was then measured at […] using a spectrophotometer.\n(§4) Negative controls contained enzyme during the incubation step but substrate was not added until after the FOX reagent.\nCompounds are screened at 5 concentrations in triplicate starting at 10 μM", "units": {"IC50": "µM"}, "values": [
      {"smiles": "Cc1c(C)c2c(c(C)c1O)CCC(C)(C=C(Cl)Cl)O2", "note": "(stereo not shown) [2-(2,2-Dichloro-vinyl)-2,5,7,8-tetramethyl-chroman-6-ol]", "IC50": "< 1"},
      {"smiles": "Cc1cc(C2(C)CCc3c(C)c(O)c(C)c(Cl)c3O2)c(C)s1", "note": "(stereo not shown) [8-Chloro-2-(2,5-dimethyl-thiophen-3-yl)-2,5,7-trimethyl-chroman-6-ol]", "IC50": "< 1"},
      {"smiles": "Cc1cc2c(c(C)c1O)CCC(CCCCl)(c1cccs1)O2", "note": "(stereo not shown) [2-(3-Chloro-propyl)-5,7-dimethyl-2-thiophen-2-yl-chroman-6-ol]", "IC50": "< 1"},
      {"smiles": "Cc1c(C)c2c(c(Cl)c1O)CCC(C)(c1cccs1)O2", "note": "(stereo not shown) [5-Chloro-2,7,8-trimethyl-2-thiophen-2-yl-chroman-6-ol]", "IC50": "< 1"},
      {"smiles": "CC(=CCc1c(O)c(C)c(C)c2c1CCC(C)(C)O2)CCCl", "note": "[5-(5-Chloro-3-methyl-pent-2-enyl)-2,2,7,8-tetramethyl-chroman-6-ol]", "IC50": "< 1"}
    ]},
    {"biological_target": "T2, human recombinant 5-lipoxygenase (Homo sapiens, UniProt P09917)", "T2 construct": "purchased Cayman 60402", "T2 sequence (P09917 1-674)": "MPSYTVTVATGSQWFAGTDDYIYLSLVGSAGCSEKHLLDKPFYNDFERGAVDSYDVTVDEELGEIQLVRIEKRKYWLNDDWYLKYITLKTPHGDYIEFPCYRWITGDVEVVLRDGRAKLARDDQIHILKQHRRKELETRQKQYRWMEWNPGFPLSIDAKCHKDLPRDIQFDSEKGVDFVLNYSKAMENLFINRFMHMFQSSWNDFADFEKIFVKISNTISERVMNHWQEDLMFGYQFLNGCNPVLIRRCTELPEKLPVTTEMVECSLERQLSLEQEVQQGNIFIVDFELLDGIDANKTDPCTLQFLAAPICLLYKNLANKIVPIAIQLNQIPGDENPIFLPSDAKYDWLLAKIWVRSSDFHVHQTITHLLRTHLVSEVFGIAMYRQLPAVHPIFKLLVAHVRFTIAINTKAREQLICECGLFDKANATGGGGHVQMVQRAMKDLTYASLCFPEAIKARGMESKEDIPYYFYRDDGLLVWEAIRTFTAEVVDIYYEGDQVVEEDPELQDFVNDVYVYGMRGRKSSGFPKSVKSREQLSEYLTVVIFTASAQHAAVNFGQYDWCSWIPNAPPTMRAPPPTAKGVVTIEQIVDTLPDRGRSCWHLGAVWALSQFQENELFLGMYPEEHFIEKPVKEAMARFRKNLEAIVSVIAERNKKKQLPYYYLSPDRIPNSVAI", "experiment": "5-Lipoxygenase enzyme assay", "assay_type": "biochemical", "details": "70 μM arachidonic acid, pH 7.4, 10 minute incubation; read-out: IC50, inhibition of 5-Lipoxygenase", "text": "as §1\nThis procedure was used for measuring the enzymatic activity of human recombinant 5-lipoxygenase using a colorimetric method based on the ferric oxidation of xylenol orange.\nas §2, with “Human recombinant 5-lipoxygenase” for “Porcine leukocyte 12/15-lipoxygenase”, “#60402)” for “#60300)”, “[18M]—Methanol” for “[18M] • Methanol”\nas §3, with “Human recombinant 5-lipoxygenase” for “Porcine Leukocyte 12/15-lipoxygenase”, “#60402)” for “#60300)”, “The test” for “Test”, “0.51-1 5-lipoxygenase” for “1.3 U 12/15-lipoxygenase”\nas §4\nCompounds were screened at 5 concentrations in triplicate starting at 10 μM", "units": {"IC50": "µM"}, "values": [
      {"smiles": "Cc1c(C)c2c(c(-c3ccc(Cl)cc3)c1O)CCC(C)(C)O2", "note": "[5-(4-Chloro-phenyl)-2,2,7,8-tetramethyl-chroman-6-ol]", "IC50": "< 1"},
      {"smiles": "Cc1c(C)c2c(c(C)c1O)CCC(C)(C=C(Cl)Cl)O2", "note": "(stereo not shown) [2-(2,2-Dichloro-vinyl)-2,5,7,8-tetramethyl-chroman-6-ol]", "IC50": "< 1"},
      {"smiles": "COc1cc(-c2c(O)c(C)c(C)c3c2CCC(C)(C)O3)cc(OC)c1OC", "note": "[2,2,7,8-Tetramethyl-5-(3,4,5-trimethoxy-phenyl)-chroman-6-ol]", "IC50": "< 1"},
      {"smiles": "Cc1c(C)c2c(c(-c3ccc(C(C)(C)C)cc3)c1O)CCC(C)(C)O2", "note": "[5-(4-tert-Butyl-phenyl)-2,2,7,8-tetramethyl-chroman-6-ol]", "IC50": "< 1"},
      {"smiles": "Cc1c(O)cc(-c2c(O)c(C)c(C)c3c2CCC(C)(C)O3)c(O)c1C", "note": "[5-(6-Hydroxy-2,2,7,8-tetramethyl-chroman-5-yl)-2,3-dimethyl-benzene-1,4-diol]", "IC50": "< 1"}
    ]}
  ]
}
